Results reported in article PMC5793879 (Cancer cell, 2017).
Where two headings read alike, the source gives them in different places. One block for each molecule: values may come before it. Bridge positions count the residues as written; N and C are the ends. Square brackets hold non-standard residues; d marks the D form. Peptide text beside a SMILES is read from it. S5 = C=CCCC[C@](C)(N)C(=O)O

Experiments:
BCL-XL = BCL-XL (Homo sapiens, UniProt Q07817); assay type: binding; details: BTSA1 at 50 μM
Chain of BCL-XL (Q07817 1-212 limits assumed): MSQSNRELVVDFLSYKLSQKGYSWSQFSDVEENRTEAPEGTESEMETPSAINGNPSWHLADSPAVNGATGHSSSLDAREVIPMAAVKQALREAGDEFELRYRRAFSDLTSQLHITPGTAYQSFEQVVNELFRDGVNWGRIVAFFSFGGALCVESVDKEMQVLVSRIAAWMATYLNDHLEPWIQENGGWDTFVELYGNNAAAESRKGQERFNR

MCL-1 = MCL-1 (Homo sapiens, UniProt Q07820); assay type: binding
Chain of MCL-1 (Q07820 170-327 limits assumed): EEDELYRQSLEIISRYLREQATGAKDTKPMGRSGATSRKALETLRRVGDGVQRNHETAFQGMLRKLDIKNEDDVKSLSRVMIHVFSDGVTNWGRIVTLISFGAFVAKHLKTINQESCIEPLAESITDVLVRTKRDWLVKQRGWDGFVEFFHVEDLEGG

MEF cell lines = assay: Viability assay of MEF cell lines; assay type: cell-based, mouse
[1] = tested on: isolated mitochondria from mouse liver; details: without addition of BAX
[2] = tested on: BAX KO MEF, DKO MEF, wild type MEF, H9c2 myocytes, 3T3 fibroblasts
OCI-AML3 cells = assay: Caspase-3/7 activation assay; assay type: cell-based, human; details: co-treatment with BTSA1
BFL-1/A1 = biological target: T1, BFL-1/A1 (Homo sapiens, UniProt Q16548); assay type: binding; details: BTSA1 at 50 μM
T1 sequence (Q16548 1-151 limits assumed): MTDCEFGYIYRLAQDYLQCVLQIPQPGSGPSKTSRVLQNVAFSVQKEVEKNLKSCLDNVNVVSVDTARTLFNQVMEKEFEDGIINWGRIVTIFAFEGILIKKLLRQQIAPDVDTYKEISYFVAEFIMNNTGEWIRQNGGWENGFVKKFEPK

[3] = biological target: BAX trigger site (full-length BAX) (Homo sapiens, UniProt Q07812); assay type: binding; details: relative to BTSA1
Chain of BAX trigger site (full-length BAX) (Q07812 whole entry): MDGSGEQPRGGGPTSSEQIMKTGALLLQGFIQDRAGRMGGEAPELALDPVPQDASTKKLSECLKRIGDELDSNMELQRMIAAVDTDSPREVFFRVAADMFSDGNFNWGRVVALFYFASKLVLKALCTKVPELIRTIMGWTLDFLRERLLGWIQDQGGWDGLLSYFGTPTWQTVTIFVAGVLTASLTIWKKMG

SMILES: O=C1C(=NNc2nccs2)C(c2ccccc2)=NN1c1nc(-c2ccccc2)cs1 [BTSA1]
competition of FITC-BIM SAHBA2 binding to BCL-XL (BCL-XL): no capacity to compete | competition of FITC-BIM SAHBA2 binding to MCL-1 (MCL-1): no capacity to compete | sensitivity of MEF cell lines (MEF cell lines): insensitive | cytochrome c release [1]: no effect | sensitivity to treatment, cells with no BAX expression ([2]; BAX KO MEF and DKO MEF, 24 hr): exhibit resistance | sensitivity to treatment, cells that express BAX ([2]; wild type MEF, H9c2 myocytes, 3T3 fibroblasts, doses giving complete cell death in AML cells): still exhibit resistance

SMILES: CC1(C)CCC(c2ccc(Cl)cc2)=C(CN2CCN(c3ccc(C(=O)NS(=O)(=O)c4ccc(N[C@H](CCN5CCOCC5)CSc5ccccc5)c(S(=O)(=O)C(F)(F)F)c4)cc3)CC2)C1 [Navitoclax, reference compound]
IC50 (MEF cell lines; Mus musculus, MEF, read-out: IC50, viability): 1000 to 5000 nM

SMILES: OC(CN1CCNCC1)Cn1c2ccc(Br)cc2c2cc(Br)ccc21 (stereo not drawn) [reference compound]
inhibition of BTSA1-mediated apoptosis measured by caspase-3/7 activation (OCI-AML3 cells): complete inhibition

competition of FITC-BIM SAHBA2 binding to BCL-XL (BCL-XL): effectively competed | competition of FITC-BIM SAHBA2 binding to MCL-1 (MCL-1; BTSA1 at 50 μM): effectively competed | competition of FITC-BIM SAHBA2 binding to BFL-1/A1 (BFL-1/A1): effectively competed
SMILES: CC[C@H](C)[C@H](NC(=O)[C@H](Cc1c[nH]c2ccccc12)NC(=O)[C@@H](NC(=O)[C@H](CCC(=O)O)NC(C)=O)[C@@H](C)CC)C(=O)N[C@@H](C)C(=O)N[C@@H](CCC(N)=O)C(=O)N[C@@H](CCC(=O)O)C(=O)N[C@@H](CC(C)C)C(=O)N[C@@H](CCCNC(=N)N)C(=O)N[C@@]1(C)CCCC=CCCC[C@@](C)(C(=O)N[C@@H](Cc2ccccc2)C(=O)N[C@@H](CC(N)=O)C(=O)N[C@@H](C)C(=O)N[C@@H](Cc2ccc(O)cc2)C(=O)N[C@@H](Cc2ccc(O)cc2)C(=O)N[C@@H](C)C(N)=O)NC(=O)[C@H](CC(=O)O)NC(=O)CNC(=O)[C@H]([C@@H](C)CC)NC1=O [BIM SAHBA2, reference compound] (Ac-EIWIAQELR[S5]IGD[S5]FNAYYA-NH2; staple 10-14 (inferred))

reduction in binding capacity to BAX [3]: ~ 10 fold
SMILES: CC1=NN(c2nc(-c3ccccc3)cs2)C(=O)C1=NNc1nccs1 [BTSA2]
